Reference: US20100317528A1, “HERBICIDE CONTAINING BENZOYLPYRAZOLE COMPOUND” (ISHIHARA SANGYO KAISHA, LTD., priority 2006, published 2010)

Legend:
Type in all cases: in vivo
[1] = tested on: barnyardgrass (Echinochloa crus-galli L.); assay: Test Example 1: foliar treatment, upland pot test, barnyardgrass; details: 31 g/ha active ingredient, observed 17th to 25th day after application; for inhibition at 31 g/ha: Echinochloa crus-galli, read-out: Growth inhibition rate (%) Barnyardgrass
[2] = tested on: velvetleaf (Abutilon theophrasti MEDIC.); assay: Test Example 1: foliar treatment, upland pot test, velvetleaf; details: 31 g/ha active ingredient, observed 17th to 25th day after application; for inhibition at 31 g/ha: Abutilon theophrasti, read-out: Growth inhibition rate (%) Velvetleaf
Procedure, shortened: (§1)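 Upland soil pots, sown; foliar spray at pigweed cotyledon–2.0 leaf, velvetleaf 0.1–1.5 leaf, rice 1.0–3.0 leaf, wheat 1.7–3.4 leaf. WP/EC formulations, prescribed a.i. rate, 500 L/ha spray volume + 0.1 vol % spreader. Visual % inhibition, d17–25.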

[3] = tested on: green foxtail (Setaria viridis L.); assay: Test Example 3: foliar treatment at later leaf stage, green foxtail; details: 4.0 to 4.5 leaf stage, MSO Concentrate 0.5 vol %, 300 L/ha
Source text: (§2) Upland field soil was put into a 1/1,000,000 hectare pot, and seeds of various plants were sown. When the respective plants reached predetermined leaf stage ((1) green foxtail (Setaria viridis L.): 4.0 to 4.5 leaf stage, (2) guineagrass (Panicum maximum Jacq.): 3.5 to 4.3 leaf stage, and (3) corn (Zea mays L.): 4.0 to 4.3 leaf stage, wettable powders or emulsifiable concentrates of compounds of the above formula (I), prepared in accordance with a conventional preparation method, were weighed so that the active ingredients became the prescribed amounts, and diluted with water in an amount corresponding to 300 or 500 liter per 1 hectare (containing of an agricultural spreader (MSO concentrate, manufactured by Cognis Corporation or “KUSARINOH”, manufactured by NIHON NOHYAKU CO., LTD.). The spray solutions thus prepared were applied for foliar treatment by a small sprayer.
(§3) On the 18th to 24th day after application, the state of growth of the respective plants was visually observed, and the herbicidal effect was evaluated by a growth inhibition rate (%) of 0 (equivalent to the non-treated area) to 100% (complete kill).

[4] = tested on: velvetleaf (Abutilon theophrasti MEDIC.); assay: Test Example 2: soil application on the day after sowing, velvetleaf; details: 250 g/ha active ingredient, observed 19th to 28th day after application; for inhibition at 250 g/ha: Abutilon theophrasti, read-out: Growth inhibition rate (%) Velvetleaf
Procedure, shortened: (§4)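 Pre-emergence soil spray, day after sowing: compound formulated as WP or EC, diluted with water equivalent to 500 L/ha, applied at prescribed active-ingredient rates to upland soil pots (1/170,000 ha). Visual inhibition rating 0–100% on days 19–28.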

[5] = tested on: corn (Zea mays L.); assay: Test Example 2: soil application on the day after sowing, corn; details: 250 g/ha active ingredient, observed 19th to 28th day after application; for inhibition at 250 g/ha: Zea mays, read-out: Growth inhibition rate (%) Corn
Procedure, shortened: as §4

[6] = tested on: green foxtail (Setaria viridis L.); assay: Test Example 2: soil application on the day after sowing, green foxtail; details: 250 g/ha active ingredient, observed 19th to 28th day after application
Procedure, shortened: as §4

[7] = tested on: corn (Zea mays L.); assay: Test Example 1: foliar treatment, upland pot test, corn; details: 31 g/ha active ingredient, observed 17th to 25th day after application; for inhibition at 31 g/ha: Zea mays, read-out: Growth inhibition rate (%) Corn
[8] = tested on: barnyardgrass (Echinochloa crus-galli L.); assay: Test Example 2: soil application on the day after sowing, barnyardgrass; details: 250 g/ha active ingredient, observed 19th to 28th day after application
Procedure, shortened: as §4

[9] = tested on: redroot pigweed (Amaranthus retroflexus L.); assay: Test Example 2: soil application on the day after sowing, redroot pigweed; details: 250 g/ha active ingredient, observed 19th to 28th day after application; for inhibition at 250 g/ha: Amaranthus retroflexus, read-out: Growth inhibition rate (%) Redroot pigweed
Procedure, shortened: as §4

[10] = tested on: crabgrass (Digitaria sanquinalis L.); assay: Test Example 2: soil application on the day after sowing, crabgrass; details: 250 g/ha active ingredient, observed 19th to 28th day after application; for inhibition at 250 g/ha: Digitaria, read-out: Growth inhibition rate (%) Crabgrass
Procedure, shortened: as §4

[11] = tested on: green foxtail (Setaria viridis L.); assay: Test Example 1: foliar treatment, upland pot test, green foxtail; details: 31 g/ha active ingredient, observed 17th to 25th day after application; for inhibition at 31 g/ha: Setaria viridis, read-out: Growth inhibition rate (%) Green foxtail
[12] = tested on: redroot pigweed (Amaranthus retroflexus L.); assay: Test Example 1: foliar treatment, upland pot test, redroot pigweed; details: 31 g/ha active ingredient, observed 17th to 25th day after application; for inhibition at 31 g/ha: Amaranthus retroflexus, read-out: Growth inhibition rate (%) Redroot pigweed
Procedure, shortened: as §1

[13] = tested on: wheat (Triticum spp.); assay: Test Example 2: soil application on the day after sowing, wheat; details: 250 g/ha active ingredient, observed 19th to 28th day after application
Procedure, shortened: as §4

[14] = tested on: prickly sida (Sida spinosa L.); assay: Test Example 1: foliar treatment, upland pot test, prickly sida; details: 31 g/ha active ingredient, observed 17th to 25th day after application; for inhibition at 31 g/ha: Sida spinosa, read-out: Growth inhibition rate (%) Prickly sida
[15] = tested on: soybean (Glycine max Merr.); assay: Test Example 1: foliar treatment, upland pot test, soybean; details: 31 g/ha active ingredient, observed 17th to 25th day after application; for inhibition at 31 g/ha: Glycine max, read-out: Growth inhibition rate (%) Soybean
[16] = tested on: crabgrass (Digitaria sanguinalis L.); assay: Test Example 1: foliar treatment, upland pot test, crabgrass; details: 31 g/ha active ingredient, observed 17th to 25th day after application; for inhibition at 31 g/ha: Digitaria sanguinalis, read-out: Growth inhibition rate (%) Crabgrass
[17] = tested on: soybean (Glycine max Merr.); assay: Test Example 2: soil application on the day after sowing, soybean; details: 250 g/ha active ingredient, observed 19th to 28th day after application
Procedure, shortened: as §4

[18] = tested on: wheat (Triticum spp.); assay: Test Example 1: foliar treatment, upland pot test, wheat; details: 31 g/ha active ingredient, observed 17th to 25th day after application; for inhibition at 31 g/ha: Triticum, read-out: Growth inhibition rate (%) Wheat
Procedure, shortened: as §1

[19] = tested on: prickly sida (Sida spinosa L.); assay: Test Example 2: soil application on the day after sowing, prickly sida; details: 250 g/ha active ingredient, observed 19th to 28th day after application
Procedure, shortened: as §4

[20] = tested on: rice (Oryza sativa L.); assay: Test Example 2: soil application on the day after sowing, rice; details: 250 g/ha active ingredient, observed 19th to 28th day after application
Procedure, shortened: as §4

[21] = tested on: rice (Oryza sativa L.); assay: Test Example 1: foliar treatment, upland pot test, rice; details: 31 g/ha active ingredient, observed 17th to 25th day after application; for inhibition at 31 g/ha: Oryza sativa, read-out: Growth inhibition rate (%) Rice
Procedure, shortened: as §1

[22] = tested on: guineagrass (Panicum maximum Jacq.); assay: Test Example 3: foliar treatment at later leaf stage, guineagrass; details: 3.5 to 4.3 leaf stage, KUSARINOH 0.1 vol %, 500 L/ha
Source text: as §2, §3

[23] = tested on: corn (Zea mays L.); assay: Test Example 3: foliar treatment at later leaf stage, corn; details: 4.0 to 4.3 leaf stage, MSO Concentrate 0.5 vol %, 300 L/ha
Source text: as §2, §3

## COCCOc1c(S(C)(=O)=O)ccc(C(=O)c2cnn(C(C)C)c2O)c1C [compound 258]
[1]
  Growth inhibition rate (%) Barnyardgrass: 100%
[2]
  Growth inhibition rate (%) Velvetleaf: 98%
[3]; 7 g/ha
  Growth inhibition rate (%) (24th day after application) Green foxtail: 95%
[3]; 15 g/ha
  Growth inhibition rate (%) (24th day after application) Green foxtail: 100%
[4]
  Growth inhibition rate (%) Velvetleaf: 100%
[5]
  Growth inhibition rate (%) Corn: 0%
[6]
  Growth inhibition rate (%) Green foxtail: 100%
[7]
  Growth inhibition rate (%) Corn: 10%
[8]
  Growth inhibition rate (%) Barnyardgrass: 100%
[9]
  Growth inhibition rate (%) Redroot pigweed: 100%
[10]
  Growth inhibition rate (%) Crabgrass: 100%
[11]
  Growth inhibition rate (%) Green foxtail: 100%
[12]
  Growth inhibition rate (%) Redroot pigweed: 95%
[13]
  Growth inhibition rate (%) Wheat: 0%
[14]
  Growth inhibition rate (%) Prickly sida: 50%
[15]
  Growth inhibition rate (%) Soybean: 90%
[16]
  Growth inhibition rate (%) Crabgrass: 100%
[17]
  Growth inhibition rate (%) Soybean: 0%
[18]
  Growth inhibition rate (%) Wheat: 0%
[19]
  Growth inhibition rate (%) Prickly sida: 40%
[20]
  Growth inhibition rate (%) Rice: 80%
[21]
  Growth inhibition rate (%) Rice: 95%

## CCn1ncc(C(=O)c2ccc(S(C)(=O)=O)c(OCCOC)c2C)c1O [compound 131]
[1]
  Growth inhibition rate (%) Barnyardgrass: 100%
[2]
  Growth inhibition rate (%) Velvetleaf: 100%
[3]; 7 g/ha
  Growth inhibition rate (%) (24th day after application) Green foxtail: 98%
[3]; 15 g/ha
  Growth inhibition rate (%) (24th day after application) Green foxtail: 100%
[4]
  Growth inhibition rate (%) Velvetleaf: 90%
[5]
  Growth inhibition rate (%) Corn: 30%
[6]
  Growth inhibition rate (%) Green foxtail: 100%
[7]
  Growth inhibition rate (%) Corn: 10%
[8]
  Growth inhibition rate (%) Barnyardgrass: 100%
[9]
  Growth inhibition rate (%) Redroot pigweed: 100%
[10]
  Growth inhibition rate (%) Crabgrass: 100%
[11]
  Growth inhibition rate (%) Green foxtail: 100%
[12]
  Growth inhibition rate (%) Redroot pigweed: 100%
[13]
  Growth inhibition rate (%) Wheat: 40%
[14]
  Growth inhibition rate (%) Prickly sida: 70%
[15]
  Growth inhibition rate (%) Soybean: 100%
[16]
  Growth inhibition rate (%) Crabgrass: 100%
[17]
  Growth inhibition rate (%) Soybean: 40%
[18]
  Growth inhibition rate (%) Wheat: 30%
[19]
  Growth inhibition rate (%) Prickly sida: 30%
[22]; 31 g/ha
  Growth inhibition rate (%) (18th day after application) Guineagrass: 93%
[23]; 120 g/ha
  Growth inhibition rate (%) (21st day after application) Corn: 0%
[20]
  Growth inhibition rate (%) Rice: 100%
[21]
  Growth inhibition rate (%) Rice: 70%

## COCCOc1c(S(C)(=O)=O)ccc(C(=O)c2cnn(C)c2O)c1C [Compound No. 151, 5-hydroxy-1-methylpyrazol-4-yl 3-(2-methoxyethoxy)-2-methyl-4-(methylsulfonyl)phenyl ketone]
[1]
  inhibition at 31 g/ha: 100%
[2]
  inhibition at 31 g/ha: 98%
[3]; Setaria viridis, 7 g/ha, read-out: Growth inhibition rate (%) (24th day after application) Green foxtail
  inhibition at 7 g/ha: 97%
[3]; Setaria viridis, 15 g/ha, read-out: Growth inhibition rate (%) (24th day after application) Green foxtail
  inhibition at 15 g/ha: 100%
[4]
  inhibition at 250 g/ha: 70%
[5]
  inhibition at 250 g/ha: 0%
[7]
  inhibition at 31 g/ha: 30%
[9]
  inhibition at 250 g/ha: 100%
[10]
  inhibition at 250 g/ha: 100%
[11]
  inhibition at 31 g/ha: 100%
[12]
  inhibition at 31 g/ha: 100%
[14]
  inhibition at 31 g/ha: 80%
[15]
  inhibition at 31 g/ha: 95%
[16]
  inhibition at 31 g/ha: 100%
[18]
  inhibition at 31 g/ha: 10%
[22]; Megathyrsus maximus, read-out: Growth inhibition rate (%) (18th day after application) Guineagrass
  inhibition at 31 g/ha: 93%
[23]; Zea mays, read-out: Growth inhibition rate (%) (21st day after application) Corn
  inhibition at 120 g/ha: 2%
[21]
  inhibition at 31 g/ha: 60%

## Cc1c(C(=O)c2cnn(C)c2O)ccc(S(C)(=O)=O)c1OC(F)F [compound 146]
[1]
  inhibition at 31 g/ha: 80%
[2]
  inhibition at 31 g/ha: 50%
[4]
  inhibition at 250 g/ha: 40%
[5]
  inhibition at 250 g/ha: 0%
[6]; Setaria viridis, read-out: Growth inhibition rate (%) Green foxtail
  inhibition at 250 g/ha: 95%
[7]
  inhibition at 31 g/ha: 0%
[8]; Echinochloa crus-galli, read-out: Growth inhibition rate (%) Barnyardgrass
  inhibition at 250 g/ha: 90%
[9]
  inhibition at 250 g/ha: 100%
[10]
  inhibition at 250 g/ha: 100%
[11]
  inhibition at 31 g/ha: 30%
[12]
  inhibition at 31 g/ha: 80%
[13]; Triticum, read-out: Growth inhibition rate (%) Wheat
  inhibition at 250 g/ha: 0%
[14]
  inhibition at 31 g/ha: 40%
[15]
  inhibition at 31 g/ha: 60%
[16]
  inhibition at 31 g/ha: 30%
[17]; Glycine max, read-out: Growth inhibition rate (%) Soybean
  inhibition at 250 g/ha: 0%
[18]
  inhibition at 31 g/ha: 0%
[19]; Sida spinosa, read-out: Growth inhibition rate (%) Prickly sida
  inhibition at 250 g/ha: 90%
[20]; Oryza sativa, read-out: Growth inhibition rate (%) Rice
  inhibition at 250 g/ha: 70%
[21]
  inhibition at 31 g/ha: 20%
